Series [1] has as its system HS578T cells. The experiment in a line: Cell viability, Cell Titer Glo Assay, HS578T cells. Format: cell-based, human. How it is done:
(§1) Cell viability was measured in 96-well plates by the Cell Titer Glo Assay (Promega), which is a luminescent assay that is an indicator of live cells as a function of metabolic activity and ATP content.
On the technique in general: Cellular ATP, detected with luciferase, serves as a proxy for viable cell number.

The subject of series [2] is Wnt/β-catenin signaling. The experiment in a line: Super8XTOPFlash luciferase reporter assay, HEK293 cells (Figure S1, S2). Format: cell-based, human. The note with it: 24 h, peptide 8 µM in Figure S1. How it is done:
(§2) Cells were plated into 24-well plates. After overnight culture, the cells were transiently transfected with the TOPFlash or Super8XTOPFlash luciferase construct, β-galactosidase-expressing vector, and pcDNA3.1C-Myc-hLRP5, pCS-Myc-hLRP6 or control vector. After 24 h incubation, cells were treated with Mesd, Mesd peptide, Rspo1 and Wnt3A CM. Cells were then lysed 24 h later and both luciferase and β-galactosidase activities were determined. The luciferase activity was normalized to the β-galactosidase activity.
Supplementary file pone.0058102.s001.tif: Figure S1 Human Mesd C-terminal region peptide blocks Wnt/β-catenin signaling induced by LRP6, Wnt3A and Rspo1 in HEK293 cells. […] The luciferase activity was then measured 24 h later with normalization to the activity of the β-galactosidase. […]
Supplementary file pone.0058102.s002.tif: Figure S2 Mesd blocks Wnt1- or Wnt10b-induced Wnt/β-catenin signaling in HEK293 cells. […] The luciferase activity was then measured 24 h later with normalization to the activity of the β-galactosidase. […] The levels of cytosolic free β-catenin, and total cellular Wnt1, Wnt10b, β-catenin, LRP6, Axin2, cyclin D1 and phosphorylated LRP6 were then analyzed by Western blotting. […]
(In a reporter assay the amount or activity of a reporter protein is the signal.)

The subject of series [3] is Wnt/β-catenin signaling. Description: Super8XTOPFlash luciferase reporter assay, PC-3 cells. Format: cell-based, human. The note with it: 24 h treatment. How it is done:
as §2

Series [4] deals with Wnt/β-catenin signaling. The experiment in a line: Super8XTOPFlash luciferase reporter assay, HS578T cells. Format: cell-based, human. Particulars: 24 h treatment. How it is done:
as §2

For series [5], the system named is Wnt/β-catenin signaling. The experiment in a line: Western blot / GST-E-cadherin binding assay of Wnt/β-catenin signaling markers, PC-3 cells. Format: cell-based, human. As to the method:
(§3) Cells in 6-well plates were lysed in 0.5 ml of lysis buffer (phosphate-buffered saline containing 1% Triton X-100 and 1 mM PMSF) at 4°C for 10 min. Equal quantities of protein were subjected to SDS-PAGE under reducing conditions. Following transfer to immobilon-P transfer membrane, successive incubations with anti-HA, anti-Wnt10b, anti-β-catenin, anti-OPG, anti-phosphorylated-LRP6, anti-LRP6, anti-Axin2, anti-Cyclin D1 or anti-actin, and horseradish peroxidase-conjugated secondary antibody were carried out for 60–120 min at room temperature. The immunoreactive proteins were then detected using the ECL system. Films showing immunoreactive bands were scanned by Kodak Digital Science DC120 Zoom Digital Camera.
(§4) The GST-E-cadherin binding assay was carried out exactly as previously described (9). Uncomplexed cytosolic free β-catenin present in 100 µg of total cell lysate was subjected to SDS-PAGE and detected using the monoclonal antibody to β-catenin.
On the technique in general: A western blot detects proteins with antibodies after separation by electrophoresis.

Series [6] concerns Wnt/β-catenin signaling. Description: Western blot / GST-E-cadherin binding assay of Wnt/β-catenin signaling markers, HS578T cells. Format: cell-based, human. Particulars: 24 h treatment. As to the method:
as §3, §4

The test system of series [7] is PC-3 cells. The experiment in a line: Cell proliferation assay (trypan blue exclusion), PC-3 cells. Format: cell-based, human. Particulars: PC-3, RPMI-1640 2% FBS, 10 days; mMesd 2 µM, hMesd (160–197) 4 µM, control peptide 4 µM; n = 3. As to the method:
(§5) Cells were seeded into 6-well plates at a density of 10000 cells/well. RPMI-1640 or DMEM medium containing 2% FBS was used as assay media. After 16 h incubation, the cells were treated with Mesd or its peptide for 10 days. Media were changed every other day. At the end of the experiment, cells were harvested and counted using the trypan blue exclusion assay.

Series [8] has as its system HS578T cells. The experiment in a line: Cell proliferation assay (trypan blue exclusion), HS578T cells. Particulars: DMEM 2% FBS, 10 days, mMesd 2 µM, hMesd (160–197) 4 µM, control peptide 4 µM, n = 3. Format: cell-based, human. How it is done:
as §5

Series [9] has as its system PC-3 cells. The experiment in a line: Cell viability, Cell Titer Glo Assay, PC-3 cells. Format: cell-based, human. Particulars: Mesd 2 µM or hMesd (160–197) 2 µM with Adriamycin 0.5 µM, 2 days after pre-treatment. How it is done: as §1
A further series relates to LRP6. The experiment in a line: 125I-Mesd ligand binding assay, LRP6-transduced HT1080 cells. Particulars: for block of Mesd protein binding to LRP6 at the cell surface / concentration at which inhibitory ability on Mesd binding was displayed: 125I-Mesd 5 nM, 4 h at 4°C; for block of Mesd protein binding to LRP6 at the cell surface: LRP6-transduced HT1080 cells; for concentration at which inhibitory ability on Mesd binding was displayed / inhibitory concentration relative to that required for mMesd (155–191): LRP6-expressing cells. Also on record: species or system human. How it is done:
(§6) Ligand binding assay was carried out exactly as previously described. Cells (2×10^5) were seeded into 12-well dishes 1 day prior to assay. Ligand-binding buffer (minimal Eagle's medium containing 0.6% BSA with a different concentration of radioligand, 0.6 ml/well) was added to cell monolayers, in the absence or the presence of unlabeled Mesd or its peptide, followed by incubation for 4 h at 4°C. Thereafter, overlying buffer containing unbound ligand was removed, and cell monolayers were washed and lysed in low-SDS lysis buffer (62.5 mM Tris-HCl pH 6.8, 0.2% SDS, 10% v/glycerol) and counted.

The subject of the next series is LRP5. The experiment in a line: 125I-Mesd ligand binding assay, LRP5-transfected ldl-7 cells. Particulars: for block of Mesd protein binding to LRP5 at the cell surface / concentration at which inhibitory ability on Mesd binding was displayed: 4 h at 4°C; for concentration at which inhibitory ability on Mesd binding was displayed / inhibitory concentration relative to that required for mMesd (155–191): LRP5-expressing cells. As to the method:
as §6

Series [10] has as its system Wnt/β-catenin signaling. The experiment in a line: TOPFlash luciferase reporter assay, LRP5-transfected HEK293 cells. Format: cell-based, human. The note with it: Wnt3A CM 5%, Rspo1 40 ng/ml, mMesd 2 µM, peptide at indicated concentrations, 24 h, normalized to β-galactosidase. As to the method:
as §2

In series [11] the test system is Wnt/β-catenin signaling. The experiment in a line: TOPFlash luciferase reporter assay, LRP6-transfected HEK293 cells. Format: cell-based, human. The note with it: Wnt3A CM 5%, Rspo1 40 ng/ml, mMesd 2 µM, peptide at indicated concentrations, 24 h, normalized to β-galactosidase. As to the method:
as §2

A further series deals with LRP6 phosphorylation. The experiment in a line: Western blot of phosphorylated LRP6 in C2C12 cells. Format: cell-based, mouse. The note with it: C2C12, Wnt3A CM 5%, 6 h; mMesd 0.5 µM, peptide at indicated concentrations. As to the method: as §3
For the next series, the system named is OPG expression. Description: Western blot of OPG expression in C2C12 cells. Format: cell-based, mouse. Particulars: 48 h, mMesd 0.5 µM. As to the method: as §3
[12] abbreviates: peptides at indicated concentrations, Figure 1C.
Where [13] appears, read: 125I-Mesd 5 nM, peptides at indicated concentrations, LRP5-transfected ldl-7 cells, Figure 1C.

With `COc1cccc2c1C(=O)c1c(O)c3c(c(O)c1C2=O)C[C@@](O)(C(=O)CO)C[C@@H]3O[C@H]1C[C@H](N)[C@H](O)[C@H](C)O1` [Adriamycin, reference compound], the “inhibition of cell viability” value with HS578T cells [1] (single agent: Mesd protein 2 µM or Adriamycin 0.5 µM, Mesd 4 days pre-treatment, then 2 days, n = 4) worked out at 69%.
For the compound “KGGGSKEKNKTKQDKGKKKKEGDLKSRSSKEENRAGNK [hMesd (160–197), human Mesd C-terminal region peptide, corresponding to mMesd (155–191)]”, the “Wnt/β-catenin signaling induced by LRP6, Wnt3A, Rspo1, Wnt1 and Wnt10b” value with Wnt/β-catenin signaling [2] is “displayed inhibitory effects”. For the same compound, the “Wnt reporter luciferase activity” value is “significantly repressed” with Wnt/β-catenin signaling [3] (PC-3, endogenous signaling, indicated concentrations) and “significantly repressed” in the series with Wnt/β-catenin signaling [4] (HS578T, endogenous signaling, indicated concentrations). In addition, the “Wnt reporter luciferase activity induced by Wnt1” value with Wnt/β-catenin signaling [3] (PC-3 transfected with Wnt1 plasmid) and in the series on Wnt/β-catenin signaling [4] (HS578T transfected with Wnt1 plasmid) was “significantly repress” each time. The “levels of cytosolic free β-catenin, LRP6 phosphorylation, Axin2 and cyclin D1” value is on record as “greatly decreased” with Wnt/β-catenin signaling [5] (PC-3, 24 h treatment); “greatly decreased” in the series with Wnt/β-catenin signaling [5] (Wnt1-expressing PC-3, 24 h treatment); “greatly decreased” in the series with Wnt/β-catenin signaling [6] (HS578T); “greatly decreased” with Wnt/β-catenin signaling [6] (Wnt1-expressing HS578T). Also, the cell proliferation entry in the series with PC-3 cells [7] and in the series on HS578T cells [8] was “displayed inhibitory effect” throughout. The Adriamycin-induced cytotoxicity result is reported as “potentiate” with HS578T cells [1] (Mesd 2 µM or hMesd (160–197) 2 µM with Adriamycin 0.5 µM, 2 days after pre-treatment) and “potentiate” in the series on PC-3 cells [9].
As for “mMesd (155–164): Mesd peptide based on the mouse Mesd C-terminal region sequence”, the “block of Mesd protein binding to LRP6 at the cell surface” value (shortened to “block of Mesd protein binding to LRP6”) in the series on LRP6 (setting [12]) is reported as “unable to block”. Also, the “block of Mesd protein binding to LRP5 at the cell surface” value (“block of Mesd protein binding to LRP5” for short) with LRP5 (setting [13]) is “unable to block”.
For the compound “mMesd (155–173): Mesd peptide based on the mouse Mesd C-terminal region sequence (GSYAWEIKDFLVSQDRCAE; UniProt Q9ERE7 155-173, looked up, fragment)”, in the series on LRP6 (setting [12]), the “block of Mesd protein binding to LRP6” value was “inhibition”. For the same compound, the “block of Mesd protein binding to LRP5” value in the series on LRP5 (setting [13]) is given as “inhibition”.
“mMesd (155–191): shorter mouse Mesd C-terminal region peptide lacking 9 conserved terminal residues of mMesd (150–195) (GSYAWEIKDFLVSQDRCAEVTLEGQMYPGKGGGSKEK; UniProt Q9ERE7 155-191, looked up, fragment)”: the “block of Mesd protein binding to LRP6” value with LRP6 (500 nM peptide, Figure 1B, triple determinations) was “blocked”. The “block of Mesd protein binding to LRP5” value with LRP5 (125I-Mesd binding assay with LRP5-expressing cells) is on record as “blocked”. In addition, in the series with Wnt/β-catenin signaling [10], the “TOPFlash activity induced by LRP5, LRP5 plus Wnt3A, LRP5 plus Rspo1” value is listed as “blocked”. The “TOPFlash activity induced by LRP6, LRP6 plus Wnt3A, LRP6 plus Rspo1” value in the series with Wnt/β-catenin signaling [11] is on record as “blocked”. For the same compound, in the series on LRP6 phosphorylation, the “Wnt3A-induced endogenous LRP6 phosphorylation” value is reported as “able to suppress”. Moreover, in the series with OPG expression (C2C12, Rspo1 20 ng/ml, Wnt3A CM 2%, mMesd (155–191) 2 µM), the “OPG expression induced by Rspo1 plus Wnt3A” value was “repressed”. Besides, in the series on OPG expression (C2C12, Wnt3A CM 5%, peptide at indicated concentrations), the “Wnt3A-induced OPG expression” value is “able to suppress”.
“mMesd (160–169): Mesd peptide based on the mouse Mesd C-terminal region sequence (EIKDFLVSQD; UniProt Q9ERE7 160-169, looked up, fragment)”: the “concentration at which inhibitory ability on Mesd binding was displayed” value in the series with LRP6 and in the series on LRP5 (125I-Mesd 5 nM) was 50 µM throughout. The “inhibitory concentration relative to that required for mMesd (155–191)” value in the series on LRP6 and in the series on LRP5 was 100 times each time.
For “mMesd (165–182): Mesd peptide based on the mouse Mesd C-terminal region sequence (LVSQDRCAEVTLEGQMYP; UniProt Q9ERE7 165-182, looked up, fragment)”, the “block of Mesd protein binding to LRP6” value in the series on LRP6 (setting [12]) is “unable to block”. The “block of Mesd protein binding to LRP5” value in the series with LRP5 (setting [13]) is “unable to block”.
Take “mMesd (174–191): Mesd peptide based on the mouse Mesd C-terminal region sequence (VTLEGQMYPGKGGGSKEK; UniProt Q9ERE7 174-191, looked up, fragment)”: the “block of Mesd protein binding to LRP6” value in the series on LRP6 (setting [12]) was “inhibition”. In addition, the “block of Mesd protein binding to LRP5” value in the series with LRP5 (setting [13]) is reported as “inhibition”.
With “mMesd (183–191): Mesd peptide based on the mouse Mesd C-terminal region sequence (GKGGGSKEK; UniProt Q9ERE7 183-191, looked up, fragment)”, the “concentration at which inhibitory ability on Mesd binding was displayed” value in the series with LRP6 and in the series with LRP5 (125I-Mesd 5 nM) was 50 µM each time. The “inhibitory concentration relative to that required for mMesd (155–191)” value in the series with LRP6 and with LRP5 was 100 times throughout.

These data come from article PMC3585277, “The C-Terminal Region Mesd Peptide Mimics Full-Length Mesd and Acts as an Inhibitor of Wnt/β-Catenin Signaling in Cancer Cells” (PLoS ONE, 2013).
